Where “and” joins values, the source holds several entries; their conditions need not be identical. Equal values may be shown once. Read-outs that look alike come from different tables or passages of the source.
Key:
[1] = target: KRAS G12D (Homo sapiens (Human), UniProt P01116, G12D); assay: KRAS G12D LoEnz Biochemical Assay, BODIPY-GDP Exchange TR-FRET (SOS1-mediated nucleotide exchange); conditions: read-out: KRas (G12D) GDP HTRF IC50
[2] = target: T1, KRAS WT (Homo sapiens (Human), UniProt P01116); assay: KRAS WT Biochemical Assay, BODIPY-GDP Exchange TR-FRET (Example 502; 0.06 nM KRAS WT, 15 nM GDP, 300 nM SOS1, 120-minute incubation); conditions: read-out: KRas HTRF IC50
Outline: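 IC50 from a 4-parameter Hill fit of percent inhibition, itself the TR-FRET 520/490 nm ratio scaled between DMSO and a fully inhibiting control. Reaction: 300 nM SOS1 and 300 nM BODIPY-GDP added to preformed 0.06 nM KRAS WT/15 nM GDP/Tb-streptavidin complex; 120 min incubation; pH 7.5 HEPES, MgCl2, DTT.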

[3] = tested on: AsPC-1 (homozygous mutant KRAS G12D human pancreatic cell line); assay: KRAS 3D-Cell Proliferation Assay, AsPC-1 (CellTiter-Glo 3D, 7 days); assay type: cell-based; conditions: AsPC-1 3D culture, read-out: Prolif AsPC-1 3D ATP IC50
Method: Example 503: KRAS 3D-Cell Proliferation Assays. Cellular potencies of compounds are assessed by evaluating inhibition of proliferation in 3D cultures of homozygous mutant KRAS G12D human pancreatic cell lines (AsPC-1 and HPAC) as compared to a KRAS wild type human lung adenocarcinoma cell line (PC-9 and/or H1975). Cells are seeded into 384-well black round-bottom, ultra-low attachment assay plates in 50 uL cell growth medium (RPMI-1640 with 10% fetal bovine serum and 2 mM L-glutamine). After overnight incubation at 37° C. and 5% CO2, compounds solubilized in DMSO are added as dilution series to the wells in a total volume of 150 nL (0.3% DMSO final). The cells are incubated for 7 days at 37° C. and 5% CO2. Cell proliferation is quantitated by addition of 40 uL/well of CellTiter-GloO 3D (Promega), and the well contents are mixed 20× at high speed using liquid handling automation workstation (Bravo with 384-well head) and centrifuged at 1500 rpm for 2 minutes to eliminate bubbles. This reagent in combination with mechanical disruption releases the cellular ATP to promote activity in a luciferase-based enzyme/substrate chemiluminescent detection system. After a 30-minute incubation under ambient conditions with shaking and an additional 10 minutes without shaking, the luminescence is read on a plate reader (e.g. EnVision [PerkinElmer]). The results are normalized to percent inhibition based on the following control samples: DMSO (0% inhibition) and 1 uM staurosporine (100% inhibition). The normalized luminescence results are plotted against compound concentration, and the data are fit to a 4-parameter Hill equation to determine the IC50 values.

[4] = tested on: HPAC (homozygous mutant KRAS G12D human pancreatic cell line); assay: KRAS 3D-Cell Proliferation Assay, HPAC (CellTiter-Glo 3D, 7 days); assay type: cell-based; conditions: HPAC 3D culture, read-out: Prolif HPAC 3D ATP IC50
Outline: (§1)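 Cells were grown as 3D cultures in ultra-low attachment plates in RPMI-1640 with 10% FBS and 2 mM glutamine. Compound dilution series (0.3% DMSO final) were added after overnight culture, and plates were incubated for 7 days at 37 °C. CellTiter-Glo 3D luminescence was normalised to DMSO and 1 uM staurosporine, and IC50 was taken from 4-parameter Hill fits.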

[5] = tested on: H1975 (KRAS wild type human lung adenocarcinoma cell line); assay: KRAS 3D-Cell Proliferation Assay, H1975 (CellTiter-Glo 3D, 7 days); assay type: cell-based; conditions: H1975 3D culture, read-out: Prolif H1975 3D ATP IC50
Outline: as §1

[6] = target: T1, KRAS WT; assay: KRAS WT Biochemical Assay, BODIPY-GDP Exchange TR-FRET (Example 501; 3 nM KRAS WT, 3 nM SOS1, 60-minute incubation); conditions: read-out: KRas(wt) GDP HTRF IC50
Outline: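 SOS1-mediated exchange assay: 3 nM biotin-KRAS WT with terbium-streptavidin, started with 3 nM SOS1 and 300 nM BODIPY-GDP, HEPES pH 7.5 with MgCl2. TR-FRET (520/490 nm) read after 60 min; normalized to DMSO and full-inhibition control, IC50 from 4-parameter Hill fit.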

[7] = tested on: PC-9 (KRAS wild type human lung adenocarcinoma cell line); assay: KRAS 3D-Cell Proliferation Assay, PC-9 (CellTiter-Glo 3D, 7 days); assay type: cell-based; conditions: PC-9 3D culture, read-out: Prolif PC9 3D ATP IC50
Outline: as §1

KRAS G12D, sequence (P01116-2 other isoform, or with tags, fused parts or gaps G12D): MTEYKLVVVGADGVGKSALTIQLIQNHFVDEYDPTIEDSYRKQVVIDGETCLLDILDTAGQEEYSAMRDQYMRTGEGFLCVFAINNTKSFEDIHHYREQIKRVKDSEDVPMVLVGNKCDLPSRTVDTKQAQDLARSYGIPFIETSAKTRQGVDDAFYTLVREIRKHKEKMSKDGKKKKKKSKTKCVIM
T1 sequence (P01116-2 other isoform, or with tags, fused parts or gaps): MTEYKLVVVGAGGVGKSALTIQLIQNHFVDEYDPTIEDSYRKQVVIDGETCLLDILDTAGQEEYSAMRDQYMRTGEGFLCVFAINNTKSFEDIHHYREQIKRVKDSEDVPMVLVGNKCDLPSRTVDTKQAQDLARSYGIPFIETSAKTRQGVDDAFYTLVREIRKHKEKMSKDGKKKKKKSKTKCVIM

| SMILES | IC50 [1] [nM] | IC50 [2] [nM] | IC50 ([3]; Homo sapiens, ASPC1, 168 h) [nM] | IC50 ([4]; Homo sapiens, HPAC, 168 h) [nM] | IC50 ([5]; Homo sapiens, NCI-H1975, 168 h) [nM] | IC50 [3] [nM] | IC50 [4] [nM] | IC50 [5] [nM] | IC50 [6] | IC50 [7] [nM] | IC50 ([7]; Homo sapiens, PC-9, 168 h) [nM] |
| --- | --- | --- | --- | --- | --- | --- | --- | --- | --- | --- | --- |
| Cc1c(F)c(N)cc(-c2nc3c4c(nc(OC[C@]5(CN6CC7(COC7)C6)CC5(F)F)nc4c2F)N2C[C@H]4CC[C@H](N4)[C@H]2[C@H](C)O3)c1C(F)(F)F (mixture of isomers) [165 a, 5-((5S,5aS,6S,9R)-12-((1-((2-Oxa-6-azaspiro[3.3]heptan-6-yl)methyl)-2,2-difluorocyclopropyl)methoxy)-1-fluoro-5-methyl-5a,6,7,8,9,10-hexahydro-5H-4-oxa-3,10a,11,13,14-pentaaza[6,9]methanonaphtho[1,8-ab]heptalen-2-yl)-2-fluoro-3-methyl-4-(trifluoromethyl)aniline] | 0.08 | 1.14 | 0.6 | 0.63 | 374 |  |  |  |  |  |  |
| Cc1c(F)c(N)cc(-c2nc3c4c(nc(OC[C@]56CCC[C@@H]5N(C)CCC6)nc4c2F)N2C[C@H]4CC[C@H](N4)[C@H]2[C@H](C)O3)c1C(F)(F)F (single isomer, unassigned) [126 (isomer 1)] | 0.1 | 0.42 | 0.6 | 0.51 | 770 |  |  |  |  |  |  |
| Cc1c(F)c(N)cc(-c2nc3c4c(nc(OC[C@]5(CN6CC7(COC7)C6)CC5(F)F)nc4c2F)N2C[C@H]4CC[C@H](N4)[C@H]2[C@H](C)O3)c1C(F)(F)F (single isomer, unassigned) [165 b] | 0.1 | 1.43 |  |  |  | 0.849 | 0.66 | 499 |  |  |  |
| CN1CCC2COc3nc(-c4cc(O)cc5cccc(F)c45)c(F)c4nc(OC[C@@]56CCCN5C[C@H](F)C6)nc(c34)N2CC1 (single isomer, unassigned) [Compound 49] |  |  | 20000 |  |  |  |  |  | 561 nM and 331 nM | 4240 |  |
| Cc1c(F)c(N)cc(-c2nc3c4c(nc(OC[C@]5(CN6CC7(COC7)C6)CC5(F)F)nc4c2F)N2C[C@H]4CC[C@H](N4)[C@H]2[C@H](C)O3)c1C(F)(F)F (stereo in doubt) [165 c, 5-((5S,5aS,6S,9R)-12-((1-((2-Oxa-6-azaspiro[3.3]heptan-6-yl)methyl)-2,2-difluorocyclopropyl)methoxy)-1-fluoro-5-methyl-5a,6,7,8,9,10-hexahydro-5H-4-oxa-3,10a,11,13,14-pentaaza[6,9]methanonaphtho[1,8-ab]heptalen-2-yl)-2-fluoro-3-methyl-4-(trifluoromethyl)aniline] | 0.09 | 2.19 |  |  |  | 1.1 | 1.09 | 481 |  |  |  |
| C[C@@H]1Oc2nc(-c3cc(N)nc4ccccc34)c(F)c3nc(OC[C@]45CCN4CC(F)(F)C5)nc(c23)N2C[C@H]3CC[C@H](N3)[C@@H]12 [Compound 79, 4-((5S,5aS,6S,9R)-12-(((R)-3,3-Difluoro-1-azabicyclo[3.2.0]heptan-5-yl)methoxy)-1-fluoro-5-methyl-5a,6,7,8,9,10-hexahydro-5H-4-oxa-3,10a,11,13,14-pentaaza-6,9-methanonaphtho[1,8-ab]heptalen-2-yl)quinolin-2-amine] | 22.7 | 1530 |  |  |  | 4040 |  |  | 954 nM | 20000 |  |
| Cc1ccnc(-c2nc3c4c(nc(OC[C@]56CCN5CC(F)(F)C6)nc4c2F)N2C[C@H]4CC[C@H](N4)[C@H]2[C@H](C)O3)c1C(F)(F)F [Compound 88, (5S,5aS,6S,9R)-12-(((R)-3,3-Difluoro-1-azabicyclo[3.2.0]heptan-5-yl)methoxy)-1-fluoro-5-methyl-2-(4-methyl-3-(trifluoromethyl)pyridin-2-yl)-5a,6,7,8,9,10-hexahydro-5H-4-oxa-3,10a,11,13,14-pentaaza-6,9-methanonaphtho[1,8-ab]heptalene] | 1470 | 1620 | 20000 |  |  |  |  |  |  |  | 20000 |
